Among the data in PMC10327353 (Breast Cancer Research : BCR, 2023) are hepatocyte CLint, predicted human half-life and Kp uu values, retold here.

A short description of series [1]: Human hepatocyte intrinsic clearance. The format is in vitro ADME. To be noted: human hepatocytes; read-out: Human Heps Clint.
Series [2] can be described thus: DMPK modeling prediction of human half-life.
The nature of series [3]: In vivo CNS-PK study in monkey. To be noted: female, cynomolgus monkey, CSF (relative to unbound plasma/blood), single PO dose of DZD1516 30 mg/kg. The method, then: The ability of DZD1516 and DZ2678 to cross the BBB in female Wistar Han rat and female Cynomolgus monkey was studied by assessing the free brain-to-plasma ratio (Kp,uu,brain) and CSF-to-free plasma ratio (Kp,uu,CSF). Total brain-to-blood ratio (Kp,brain) and CSF-to-blood ratio (Kp,CSF) were measured from six time points after oral administration. Free fractions of DZD1516 and DZ2678 in the biological matrix were determined by in vitro plasma and brain binding assay.
Kp,brain= AUCbrain/AUCblood. Kp,CSF was the average of the CSF-to-blood ratios at the evaluated time points. Kp,uu,brain= Kp,brain× fu,brain/fu,blood; Kpuu,CSF= Kp,CSF/fu,blood.
Three female Cynomolgus monkeys were administered with a single PO dose of DZD1516 at 30 mg/kg. The PO dosing formulation was a suspension in 0.5% HPMC E5 in water (w/v). Plasma and CSF samples were collected at 0.5, 1, 2, 4, 8, and 24 hrs post-dose. The concentrations of DZD1516 and metabolite DZ2678 in monkey plasma and CSF were determined by the validated LC-MS/MS method.

`COc1cc(O[C@H]2CCN(C)CC2(F)F)c2c(Nc3ccc(Oc4ccn5ncnc5c4)c(C)c3)ncnc2c1` [DZD1516]: the hepatocyte CLint in series [1] turned out to be 12 µL/min/1e6 cells. In addition, the predicted human half-life result in series [2] is “about 8 h”. The compound further displayed a Kp uu in series [3] of 4.1.
